Measurements from paper PMC6576746, “Rational discovery of dual-indication multi-target PDE/Kinase inhibitor for precision anti-cancer therapy using structural systems pharmacology” (PLoS Computational Biology, 2019).

Experiments:
Experiment in all cases: cells
Parameters in all cases: species or system panel of human cancer cell lines; Eurofins OncoPanel proliferation; nuclei count by high-content fluorescence imaging, 10-point dose response
A427 = conditions: Homo sapiens, A-427, 72 h, cell count, 3 days
In short: (§1)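 Ten half-log concentrations from 100 μM (0.1% DMSO max) applied one day post-seeding, 3-day exposure at 37°C; untreated time-zero plate for GI50. Readout is nuclear cell count by automated fluorescence imaging, giving EC50, IC50, GI50 and 0–10 activity area.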

BPH1 = conditions: Homo sapiens, BPH-1, 72 h, cell count, 3 days
In short: as §1

BT20 = conditions: Homo sapiens, BT-20, 72 h, cell count, 3 days
In short: as §1

CEM-C1 = conditions: CEM/C1, 72 h, cell count, 3 days
In short: as §1

ChaGoK1 = conditions: Homo sapiens, ChaGo-K-1, 72 h, cell count, 3 days
In short: as §1

H9 = conditions: Homo sapiens, H9, 72 h, cell count, 3 days
In short: as §1

HCT-116 = conditions: Homo sapiens, HCT-116, 72 h, cell count, 3 days
In short: as §1

HCT-8 = conditions: Homo sapiens, HCT-8, 72 h, cell count, 3 days
In short: as §1

HT-1080 = conditions: Homo sapiens, HT-1080, 72 h, cell count, 3 days
In short: as §1

HT1376 = conditions: Homo sapiens, HT-1376, 72 h, cell count, 3 days
In short: as §1

JEG-3 = conditions: Homo sapiens, JEG-3, 72 h, cell count, 3 days
In short: as §1

K562 = conditions: Homo sapiens, K562, 72 h, cell count, 3 days
In short: as §1

MOLT-3 = conditions: Homo sapiens, MOLT-3, 72 h, cell count, 3 days
In short: as §1

MT-3 = conditions: MT-3, 72 h, cell count, 3 days
In short: as §1

[1] = 50% of maximum possible response

IC50 (BT20; [1]): > 100 µM
GI50 (BT20; corrected for time zero): 64.2 µM
EC50 (BT20; curve inflection point): > 100 µM
IC50 (HCT-116; [1]): 8.39 µM
GI50 (HCT-116; corrected for time zero): 8.1 µM
EC50 (HCT-116; curve inflection point): 8.01 µM
IC50 (HCT-8; [1]): 23.9 µM
GI50 (HCT-8; corrected for time zero): 23.3 µM
EC50 (HCT-8; curve inflection point): 23.2 µM
IC50 (HT-1080; [1]): 11.7 µM
GI50 (HT-1080; corrected for time zero): 10.9 µM
EC50 (HT-1080; curve inflection point): 11.7 µM
IC50 (HT1376; [1]): > 100 µM
GI50 (HT1376; corrected for time zero): > 100 µM
EC50 (HT1376; curve inflection point): > 100 µM
IC50 (K562; [1]): 44.4 µM
GI50 (K562; corrected for time zero): 38.5 µM
EC50 (K562; curve inflection point): 44.4 µM
IC50 (MOLT-3; [1]): 32.4 µM
GI50 (MOLT-3; corrected for time zero): 19.9 µM
EC50 (MOLT-3; curve inflection point): 30.5 µM
Compound: C[C@@H]1CC(=O)NN=C1c1ccc(NN=C(C#N)C#N)cc1 [levosimendan]
IC50 (A427; [1]): 23.6 µM
GI50 (A427; corrected for time zero): 18.4 µM
EC50 (A427; curve inflection point): 23.6 µM
IC50 (BPH1; [1]): 8.33 µM
GI50 (BPH1; corrected for time zero): 7.33 µM
EC50 (BPH1; curve inflection point): 7.05 µM
IC50 (CEM-C1; [1]): 22.5 µM
GI50 (CEM-C1; corrected for time zero): 18.8 µM
EC50 (CEM-C1; curve inflection point): 22.5 µM
IC50 (ChaGoK1; [1]): 84.9 µM
GI50 (ChaGoK1; corrected for time zero): 57.2 µM
EC50 (ChaGoK1; curve inflection point): 84.9 µM
IC50 (H9; [1]): 5.4 µM
GI50 (H9; corrected for time zero): 4.31 µM
EC50 (H9; curve inflection point): 4.92 µM
IC50 (JEG-3; [1]): 30.5 µM
GI50 (JEG-3; corrected for time zero): 25.6 µM
EC50 (JEG-3; curve inflection point): 30.5 µM
IC50 (MT-3; [1]): > 100 µM
GI50 (MT-3; corrected for time zero): > 100 µM
EC50 (MT-3; curve inflection point): > 100 µM
